Assay results as given in patent US20250034110A1, “LPAR1 ANTAGONISTS AND USES THEREOF” (Pipeline Therapeutics, Inc., priority 2021, published 2025).
pIC50: −log10 of the molar value. Like-named read-outs stand apart in the source and are kept apart here.

Molecular target: human LPAR1 (Homo sapiens, UniProt Q92633)
Assay: In vitro functional assay of lysophosphatidic acid receptor 1 activity (calcium flux)
Type: cell-based
[1] = B103 cells stably expressing human LPAR1, calcium flux (Fluo-4 NW) after lysophosphatidic acid (18:1) at EC80, 100 pM to 10 μM, read-out: LPAR1 IC50

human LPAR1, sequence (Q92633 whole entry): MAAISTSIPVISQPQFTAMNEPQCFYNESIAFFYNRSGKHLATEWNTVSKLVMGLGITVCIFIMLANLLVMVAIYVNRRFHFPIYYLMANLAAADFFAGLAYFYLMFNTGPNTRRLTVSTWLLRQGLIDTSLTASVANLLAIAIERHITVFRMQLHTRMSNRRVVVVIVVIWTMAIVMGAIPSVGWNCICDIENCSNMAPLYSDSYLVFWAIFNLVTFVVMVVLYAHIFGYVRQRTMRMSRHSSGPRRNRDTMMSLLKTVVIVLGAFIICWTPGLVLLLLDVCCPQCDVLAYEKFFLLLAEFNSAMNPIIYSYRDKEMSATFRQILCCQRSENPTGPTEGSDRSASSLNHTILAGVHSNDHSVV

Row | SMILES | pIC50 (LPAR1 IC50) | pIC50 [1]
1 | CC(=O)N1CCC(N(C(=O)Nc2ccc(C)[n+]([O-])c2OC(F)F)c2ccccc2C(C)C)CC1 [Example 197, 3-(3-(1-acetylpiperidin-4-yl)-3-(2-isopropylphenyl)ureido)-2-(difluoromethoxy)-6-methylpyridine 1-oxide] | < 6.00 | –
2 | Cc1ccc(NC(=O)N(c2ccccc2C(C)C)[C@H]2CCN(S(C)(=O)=O)C2)c(OC(F)F)n1 [Example 75, (S)-3-(2-(difluoromethoxy)-6-methylpyridin-3-yl)-1-(2-isopropylphenyl)-1-(1-(methylsulfonyl)pyrrolidin-3-yl)urea] | – | 7.00 to 8.00
3 | COc1ccc(NC(=O)N(c2ccccc2C(C)C)[C@H]2CC[C@H](C(=O)NO)CC2)c(OC(F)F)n1 [Example 281] | – | 7.00 to 8.00
4 | COc1cc(F)c(Cl)cc1NC(=O)N(c1ccccc1C(C)C)[C@H]1CC[C@H](C(=O)O)CC1 [Example 300, (1r,4r)-4-(3-(5-chloro-4-fluoro-2-methoxyphenyl)-1-(2-isopropylphenyl)ureido)cyclohexane-1-carboxylic acid] | – | 6.00 to 7.00
5 | CC(=O)N1CCC(N(C(=O)Nc2ccc(C(F)F)nc2OC(F)F)c2ccccc2C(C)C)CC1 [Example 115] | 7.00 to 8.00 | –
6 | Cc1ccc(NC(=O)N(c2ccccc2C(C)C)C2CNC(=O)C2)c(OC(F)F)n1 (centres unmarked) [Example 30, 3-(2-(difluoromethoxy)-6-methylpyridin-3-yl)-1-(2-isopropylphenyl)-1-(5-oxopyrrolidin-3-yl)urea] | – | 6.00 to 7.00
7 | Cc1ccc(NC(=O)N(c2ccccc2C(C)C)[C@H]2CC[C@H](C(=O)O)C2)c(OC(F)F)n1 [Example 304] | – | > 8.00
8 | CC(=O)N1CCC(N(C(=O)Nc2ccc(C)nc2OC(F)F)c2cccnc2C(C)C)CC1 [Example 31, 1-(1-acetylpiperidin-4-yl)-3-(2-(difluoromethoxy)-6-methylpyridin-3-yl)-1-(2-isopropylpyridin-3-yl)urea] | 6.00 to 7.00 | –
9 | CC(C)(C)c1ccccc1N(C(=O)Nc1ncc(Br)cc1OC(F)F)C1CCC(C(=O)O)CC1 (centres unmarked) [Example 273] | – | 7.00 to 8.00
10 | Cc1ccc(NC(=O)N(c2ccccc2C(C)C)[C@H]2C[C@@H](CO)C2)c(OC(F)F)n1 [Example 193, 3-(2-(difluoromethoxy)-6-methylpyridin-3-yl)-l-((1 s,3s)-3-(hydroxymethyl)cyclobutyl)-1-(2-isopropylphenyl)urea] | – | 6.00 to 7.00
11 | C=C(C)c1ccccc1N(C(=O)Nc1ccc(C)nc1OC(F)F)C1CCN(C(C)=O)CC1 [Example 29, 1-(1-acetylpiperidin-4-yl)-3-(2-(difluoromethoxy)-6-methylpyridin-3-yl)-1-(2-(prop-1-en-2-yl)phenyl)urea] | 7.00 to 8.00 | –
12 | CC(=O)N1CCC2(CC1)CC(N(C(=O)Nc1ccc(C)nc1OC(F)F)c1ccccc1C(C)C)C2 [Example 251, 1-(7-acetyl-7-azaspiro[3.5]nonan-2-yl)-3-(2-(difluoromethoxy)-6-methylpyridin-3-yl)-1-(2-isopropylphenyl)urea] | – | < 6.00
13 | COc1ccc(NC(=O)N(c2ccccc2C(C)C)C2CCN(C(C)=O)CC2)c(OCC(F)F)n1 [Example 106] | 7.00 to 8.00 | –
14 | CC(C)c1ccccc1N(C(=O)Nc1cc(F)c(F)cc1OC(F)F)[C@H]1CC[C@H](C(=O)O)CC1 [Example 298, (1r,4r)-4-(3-(2-(difluoromethoxy)-4,5-difluorophenyl)-1-(2-isopropylphenyl)ureido)cyclohexane-1-carboxylic acid] | – | > 8.00
15 | CC(=O)N1CC(N(C(=O)Nc2ccc(C)nc2OC(F)F)c2ccccc2C(C)C)C1 [Example 67, 1-(1-acetylazetidin-3-yl)-3-(2-(difluoromethoxy)-6-methylpyridin-3-yl)-1-(2-isopropylphenyl)urea] | – | 7.00 to 8.00
16 | Cc1ccc(NC(=O)N(c2ccccc2C(C)C)C2CCOCC2)c(OC(F)F)n1 [Example 18, 3-(2-(difluoromethoxy)-6-methylpyridin-3-yl)-1-(2-isopropylphenyl)-1-(tetrahydro-2H-pyran-4-yl)urea] | – | 7.00 to 8.00
17 | COc1ccc(NC(=O)N(c2ccccc2C(C)C)[C@@H]2C[C@@H]3CC[C@H]2N3C(C)=O)c(OC(F)F)n1 (racemic) [Example 59, rac-1-((1R,2R,4S)-7-acetyl-7-azabicyclo[2.2.1]heptan-2-yl)-3-(2-(difluoromethoxy)-6-methoxypyridin-3-yl)-1-(2-isopropylphenyl)urea] | – | 6.00 to 7.00
18 | COC(=O)N1CC(N(C(=O)Nc2ccc(C)nc2OC(F)F)c2ccccc2C(C)C)C1 [Example 77, methyl 3-(3-(2-(difluoromethoxy)-6-methylpyridin-3-yl)-l-(2-isopropylphenyl)ureido)azetidine-1-carboxylate] | – | 7.00 to 8.00
19 | CC(C)Oc1cc(C(F)F)ncc1NC(=O)N(c1ccccc1C(C)C)[C@H]1CC[C@H](C(=O)O)CC1 [Example 295, (1r,4r)-4-(3-(6-(difluoromethyl)-4-isopropoxypyridin-3-yl)-1-(2-isopropylphenyl)ureido)cyclohexane-1-carboxylic acid] | – | 6.00 to 7.00
20 | CC(=O)N1CC(N(C(=O)Nc2ncc(Cl)cc2OC(F)F)c2ccccc2C(C)C)C1 [Example 120] | – | 6.00 to 7.00
21 | CC(C)c1ccccc1N(C(=O)Nc1cc(F)c(Cl)cc1OCC(F)F)[C@H]1CC[C@H](C(=O)O)CC1 [Example 334, (1r,4r)-4-(3-(4-chloro-2-(2,2-difluoroethoxy)-5-fluorophenyl)-1-(2-isopropylphenyl)ureido)cyclohexane-1-carboxylic acid] | – | > 8.00

Row | SMILES | pIC50 (LPAR1 IC50) | pIC50 [1]
22 | Cc1ccc(NC(=O)N(c2ccccc2C(C)C)[C@H]2CC[C@](O)(C(F)(F)C(=O)O)CC2)c(OC(F)F)n1 [Example 326] | – | > 8.00
23 | Cc1ccc(NC(=O)N(c2ccccc2C(C)C)[C@H]2C[C@H](CC(N)=O)C2)c(OC(F)F)n1 [Example 188] | – | 6.00 to 7.00
24 | COc1ccc(NC(=O)N(c2ccccc2C(C)C)[C@H]2C[C@@H](CC(=O)O)C2)c(OCC(F)F)n1 [Example 332] | – | 7.00 to 8.00
25 | CC(=O)N1CCC(N(C(=O)Nc2ncc(Br)cc2OC(F)F)c2ccccc2C(C)C)CC1 [Example 129, 1-(1-acetylpiperidin-4-yl)-3-(5-bromo-3-(difluoromethoxy)pyridin-2-yl)-1-(2-isopropylphenyl)urea] | 7.00 to 8.00 | –
26 | COc1ccc(NC(=O)N(c2ccccc2C(C)C)C2CN(C(C)=O)C2)c(OC(F)F)n1 [Example 41, 1-(1-acetylazetidin-3-yl)-3-(2-(difluoromethoxy)-6-methoxypyridin-3-yl)-1-(2-isopropylphenyl)urea] | – | 6.00 to 7.00
27 | Cc1ccc(NC(=O)N(c2ccccc2C(C)C)C2CN(S(C)(=O)=O)C2)c(OC(F)F)n1 [Example 74, 3-(2-(difluoromethoxy)-6-methylpyridin-3-yl)-1-(2-isopropylphenyl)-1-(1-(methylsulfonyl)azetidin-3-yl)urea] | – | 6.00 to 7.00
28 | Cc1ccc(NC(=O)N(c2ccccc2C(C)C)C2CN(C3COC3)C2)c(OC(F)F)n1 [Example 22, 3-(2-(difluoromethoxy)-6-methylpyridin-3-yl)-1-(2-isopropylphenyl)-1-(1-(oxetan-3-yl)azetidin-3-yl)urea] | – | 6.00 to 7.00
29 | COc1ccc(NC(=O)N(c2ccccc2C2CC2)[C@H]2CC[C@@H](C(=O)O)CC2)c(OC(F)F)n1 [Example 274] | – | 6.00 to 7.00
30 | COc1nc(C#N)ccc1NC(=O)N(c1ccccc1C(C)C)C1CCN(C(C)=O)CC1 [Example 185, 1-(1-acetylpiperidin-4-yl)-3-(6-cyano-2-methoxypyridin-3-yl)-1-(2-isopropylphenyl)urea] | 6.00 to 7.00 | –
31 | Cc1ccc(NC(=O)N(c2ccccc2C(C)C)C2CCC3(CC2)COC3)c(OC(F)F)n1 [Example 236, 3-(2-(difluoromethoxy)-6-methylpyridin-3-yl)-1-(2-isopropylphenyl)-1-(2-oxaspiro[3.5]nonan-7-yl)urea] | – | 6.00 to 7.00
32 | Cc1ccc(NC(=O)N(c2ccccc2C(C)C)C2CCC(F)(F)CC2)c(OC(F)F)n1 [Example 237, 1-(4,4-difluorocyclohexyl)-3-(2-(difluoromethoxy)-6-methylpyridin-3-yl)-1-(2-isopropylphenyl)urea] | – | 6.00 to 7.00
33 | COC(=O)N1CCC(N(C(=O)Nc2ccc(OC)nc2OC(F)F)c2ccccc2C(C)C)CC1 [Example 63, methyl 4-(3-(2-(difluoromethoxy)-6-methoxypyridin-3-yl)-1-(2-isopropylphenyl)ureido)piperidine-1-carboxylate] | 7.00 to 8.00 | –
34 | Cc1ccc(NC(=O)N(C[C@H]2CC[C@@H](C(=O)O)CC2)c2ccccc2C(C)C)c(OC(F)F)n1 [Example 172] | – | 7.00 to 8.00
35 | CC(=O)N1CC[C@H](N(C(=O)Nc2ccc(C)nc2OC(F)F)c2ccccc2C(C)C)C1 [Example 68, (S)-1-(1-acetylpyrrolidin-3-yl)-3-(2-(difluoromethoxy)-6-methylpyridin-3-yl)-1-(2-isopropylphenyl)urea] | – | 7.00 to 8.00
36 | COc1ccc(NC(=O)N(c2ccccc2C(C)C)[C@H]2CC[C@](O)(C(F)(F)C(=O)O)CC2)c(OC(F)F)n1 [Example 322, 2-((1s,4s)-4-(3-(2-(difluoromethoxy)-6-methoxypyridin-3-yl)-1-(2-isopropylphenyl)ureido)-1-hydroxycyclohexyl)-2,2-difluoroacetic acid] | – | > 8.00
37 | COc1ccc(NC(=O)N(c2ccccc2C(C)C)[C@H]2CC[C@H](C(=O)O)CC2)c(O)n1 [Example 254] | – | < 6.00
38 | Cc1ccc(NC(=O)N(c2ccccc2C(C)C)[C@@H]2CC[C@@H](C(=O)O)C2)c(OC(F)F)n1 [Example 303] | – | > 8.00
39 | Cc1ccc(NC(=O)N(c2ccccc2C(C)C)[C@H]2CC[C@H](C(=O)O)CC2)c(OC(F)F)n1 [Example 155, trans-4-(3-(2-(difluoromethoxy)-6-methylpyridin-3-yl)-1-(2-isopropylphenyl)ureido)cyclohexane-1-carboxylic acid] | – | 7.00 to 8.00
40 | Cc1cc(OC(F)F)c(NC(=O)N(c2ccccc2C(C)C)[C@H]2C[C@@H](CC(=O)O)C2)cn1 [Example 305] | – | 7.00 to 8.00
41 | CC(C)Oc1ccc(NC(=O)N(c2ccccc2C(C)C)[C@H]2CC[C@H](C(=O)O)CC2)c(OC(C)C)n1 [Example 252, (1r,4r)-4-(3-(2,6-diisopropoxypyridin-3-yl)-1-(2-isopropylphenyl)ureido)cyclohexane-1-carboxylic acid] | – | 6.00 to 7.00
